Reference: patent US7560468B2, “Substituted 1,4,8-triazaspiro[4,5]decan-2-one compounds” (Gruenenthal GmbH, priority 2004, dated 2009)

Legend:
[1] = system: batrachotoxin (BTX) binding site of the sodium channel; experiment: Affinity to the batrachotoxin (BTX) binding site of the sodium channel; conditions: rat cerebrocortex synaptosomes, [3H]-batrachotoxinin A20 α-benzoate 10 nM; test concentration not given
[2] = target: T1, 5-HT transporter (Rattus norvegicus, UniProt P31652); experiment: Inhibition of 5-HT uptake in synaptosomes; type: biochemical; conditions: for inhibition at 1 µM: read-out: Uptake_5-HT, rat, 1 μM, % inhibition
T1 construct: from tissue; host or cells: rat brain synaptosomes (marrow/medulla and pons), P2 fraction
T1 sequence (P31652 whole entry): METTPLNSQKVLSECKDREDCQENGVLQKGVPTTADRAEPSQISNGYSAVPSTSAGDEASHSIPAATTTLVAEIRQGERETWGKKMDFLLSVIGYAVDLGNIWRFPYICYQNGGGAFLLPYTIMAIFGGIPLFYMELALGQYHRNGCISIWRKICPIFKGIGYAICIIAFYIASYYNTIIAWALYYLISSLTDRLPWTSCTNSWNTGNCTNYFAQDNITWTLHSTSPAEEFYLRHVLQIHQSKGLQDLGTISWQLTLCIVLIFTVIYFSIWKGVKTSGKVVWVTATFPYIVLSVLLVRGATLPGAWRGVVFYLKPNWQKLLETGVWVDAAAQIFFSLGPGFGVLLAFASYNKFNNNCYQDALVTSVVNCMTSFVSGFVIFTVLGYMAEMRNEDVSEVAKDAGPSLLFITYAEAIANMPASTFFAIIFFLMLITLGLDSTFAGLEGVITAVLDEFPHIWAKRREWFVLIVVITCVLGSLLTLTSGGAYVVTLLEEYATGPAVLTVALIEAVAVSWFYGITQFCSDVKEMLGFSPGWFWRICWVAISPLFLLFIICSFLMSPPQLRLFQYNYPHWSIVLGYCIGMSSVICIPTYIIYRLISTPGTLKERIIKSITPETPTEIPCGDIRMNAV

inhibition at 1 µM [2] | SMILES | BTX Inhibition [1] | Uptake_5-HT, rat, 1 μM, % inhibition [2]
 | CCCCOc1ccc(S(=O)(=O)N2CCC3(CC2)NCC(=O)N3Cc2ccccc2C#N)cc1 [Example 5, 2-[8-(4-Butoxy-benzolsulfonyl)-2-oxo-1,4,8-triazaspiro[4,5]dec-1-ylmethyl]-benzonitrile] | 59 | 30%
 | CCC(C)(C)c1ccc(S(=O)(=O)N2CCC3(CC2)NCC(=O)N3Cc2ccccc2C#N)cc1 [Example 6, 2-{8-[4-(1,1-Dimethylpropyl)benzolesulfonyl]-2-oxo-1,4,8-triazaspiro[4,5]dec-1-ylmethyl}-benzonitrile] | 56 | 57%
 | Cc1cc(C)c(S(=O)(=O)N2CCC3(CC2)NC(C(C)C)C(=O)N3Cc2ccccc2)c(C)c1 (centres unmarked) [Example 14, 1-Benzyl-3-isopropyl-8-(2,4,6-trimethylbenzolsulfonyl)-1,4,8-triazaspiro[4,5]decan-2-one] | 68 | 61%
 | CCCCN1C(=O)C(CCSC)NC12CCN(S(=O)(=O)c1cccc(C)c1)CC2 (centres unmarked) [Example 18, 1-Butyl-3-(2-methylsulfanylethyl)-8-(toluol-3-sulfonyl)-1,4,8-triazaspiro[4,5]decan-2-one] | 32 | 68%
 | CCCCN1C(=O)C(Cc2ccccc2)NC12CCN(S(=O)(=O)c1ccccc1C(F)(F)F)CC2 (centres unmarked) [Example 22, 3-Benzyl-1-butyl-8-(2-trifluoromethylbenzolsulfonyl)-1,4,8-triazaspiro[4,5]decan-2-one] | 38 | 66%
 | CSCCC1NC2(CCN(S(=O)(=O)c3ccccc3C(F)(F)F)CC2)N(Cc2ccc(F)cc2)C1=O (centres unmarked) [Example 25, 1-(4-Fluorobenzyl)-3-(2-methylsulfanylethyl)-8-(2-trifluoromethylbenzolsulfonyl)-1,4,8-triazaspiro[4,5]decan-2-one] | 57 | 58%
 | CSCCC1NC2(CCN(S(=O)(=O)c3cc(C)c(Cl)cc3C)CC2)N(Cc2ccc(F)cc2)C1=O (centres unmarked) [Example 26, 8-(4-Chloro-2,5-dimethylbenzolsulfonyl)-1-(4-fluorobenzyl)-3-(2-methylsulfanylethyl)-1,4,8-triazaspiro[4,5]decan-2-one] | 38 | 68%
 | COc1ccc(S(=O)(=O)N2CCC3(CC2)NC(Cc2ccccc2)C(=O)N3Cc2ccccc2)cc1OC (centres unmarked) [Example 29, 1,3-Dibenzyl-8-(3,4-dimethoxy-benzolsulfonyl)-1,4,8-triazaspiro[4,5]decan-2-one] | 47 | 75%
 | CCCCN1C(=O)C(Cc2ccccc2)NC12CCN(S(=O)(=O)c1ccc(CC)cc1)CC2 (centres unmarked) [Example 33, 3-Benzyl-1-butyl-8-(4-ethylbenzolsulfonyl)-1,4,8-triazaspiro[4,5]decan-2-one] | 54 | 67%
 | O=C1C(Cc2ccccc2)NC2(CCN(S(=O)(=O)c3ccccc3F)CC2)N1Cc1ccccc1 (centres unmarked) [Example 37, 1,3-Dibenzyl-8-(2-fluorobenzolsulfonyl)-1,4,8-triazaspiro[4,5]decan-2-one] | 61 | 73%
40% | COC(=O)c1ccccc1S(=O)(=O)N1CCC2(CC1)NC(CCSC)C(=O)N2Cc1ccccc1C#N (centres unmarked) [Example 38, Methyl 2-[1-(2-cyanobenzyl)-3-(2-methylsulfanylethyl)-2-oxo-1,4,8-triazaspiro[4,5]decan-8-sulfonyl]-benzoate] |  | 
 | CN1C(=O)C(Cc2ccccc2)NC12CCN(S(=O)(=O)c1cccc(Cl)c1)CC2 (centres unmarked) [Example 40, 3-Benzyl-8-(3-chlorobenzolsulfonyl)-1-methyl-1,4,8-triazaspiro[4,5]decan-2-one] |  | 57%
 | CCC(C)(C)c1ccc(S(=O)(=O)N2CCC3(CC2)NC(CCSC)C(=O)N3Cc2ccccc2)cc1 (centres unmarked) [Example 41, 1-Benzyl-8-[4-(1,1-dimethylpropyl)benzolesulfonyl]-3-(2-methylsulfanylethyl)-1,4,8-triazaspiro[4,5]decan-2-one] |  | 56%
 | CSCCC1NC2(CCN(S(=O)(=O)c3ccc(C)cc3)CC2)N(Cc2ccc(F)cc2)C1=O (centres unmarked) [Example 44, 1-(4-Fluorobenzyl)-3-(2-methylsulfanylethyl)-8-(toluol-4-sulfonyl)-1,4,8-triazaspiro[4,5]decan-2-one] | 42 | 42%
 | Cc1ccc(S(=O)(=O)N2CCC3(CC2)NC(Cc2ccccc2)C(=O)N3Cc2ccccc2)cc1 (centres unmarked) [Example 45, 1,3-Dibenzyl-8-(toluol-4-sulfonyl)-1,4,8-triazaspiro[4,5]decan-2-one] | 37 | 74%
 | CCOC(=O)CN1C(=O)C(Cc2ccccc2)NC12CCN(S(=O)(=O)c1cccs1)CC2 (centres unmarked) [Example 48] | 30 | 85%
 | COC(=O)c1ccc(CN2C(=O)CNC23CCN(S(=O)(=O)Cc2ccccc2)CC3)cc1 [Example 51, Methyl 4-(2-Oxo-8-benzolmethansulfonyl-1,4,8-triazaspiro[4,5]dec-1-ylmethyl)benzoate] | 31 | 62%
 | CC(C)C1NC2(CCN(S(=O)(=O)c3ccc([N+](=O)[O-])cc3)CC2)N(Cc2cccc(C#N)c2)C1=O (centres unmarked) [Example 52, 3-[3-Isopropyl-8-(4-nitrobenzolsulfonyl)-2-oxo-1,4,8-triazaspiro[4,5]dec-1-ylmethyl]-benzonitrile] |  | 53%
57% | CN(C)S(=O)(=O)N1CCC2(CC1)NCC(=O)N2Cc1ccccc1F [Example 55, 1-(2-Fluorobenzyl)-2-oxo-1,4,8-triazaspiro[4,5]decan-8-sulfonic acid dimethylamide] |  | 
 | CCOC(=O)CN1C(=O)C(CCSC)NC12CCN(S(=O)(=O)Cc1ccccc1)CC2 (centres unmarked) [Example 57, Ethyl[3-(2-methylsulfanylethyl)-2-oxo-8-benzolmethansulfonyl-1,4,8-triazaspiro[4,5]dec-1-yl]-acetate] | 34 | 32%
 | C=CCN1C(=O)C(CCSC)NC12CCN(S(=O)(=O)Cc1ccccc1)CC2 (centres unmarked) [Example 58, 1-Allyl-3-(2-methylsulfanylethyl)-8-benzolmethansulfonyl-1,4,8-triazaspiro[4,5]decan-2-one] |  | 56%
 | Cc1cc(C)c(S(=O)(=O)N2CCC3(CC2)NCC(=O)N3Cc2cccc(C#N)c2)c(C)c1 [Example 59, 3-[2-Oxo-8-(2,4,6-trimethylbenzolsulfonyl)-1,4,8-triazaspiro[4,5]dec-1-ylmethyl]-benzonitrile] | 50 | 50%
 | COC(=O)c1ccc(CN2C(=O)CNC23CCN(S(=O)(=O)c2c(C)cc(C)cc2C)CC3)cc1 [Example 60, Methyl-4-[2-oxo-8-(2,4,6-trimethylbenzolsulfonyl)-1,4,8-triazaspiro[4,5]dec-1-ylmethyl]-benzoate] | 59 | 65%
70% | CCCCS(=O)(=O)N1CCC2(CC1)NC(Cc1ccccc1)C(=O)N2CC(=O)OCC (centres unmarked) [Example 62, Ethyl[3-benzyl-8-(butan-1-sulfonyl)-2-oxo-1,4,8-triazaspiro[4,5]dec-1-yl]-acetate] |  | 
41% | CC(C)NC(=S)N1CCC2(CC1)NC(=O)C(Cc1ccccc1)N2 (centres unmarked) [Example 103, 2-Benzyl-3-oxo-1,4,8-triazaspiro[4,5]decan-8-thiocarboxylic acid isopropylamide] |  | 
 | C=CCN1C(=O)C(C(C)C)NC12CCN(C(=S)Nc1ccc(F)cc1)CC2 (centres unmarked) [Example 125, 1-Allyl-3-isopropyl-2-oxo-1,4,8-triazaspiro[4,5]decan-8-thiocarboxylic acid (4-fluorobenzol)amide] |  | 34%
47% | CCOC(=O)CN1C(=O)C(Cc2ccccc2)NC12CCN(C(=S)NC(=O)OCC)CC2 (centres unmarked) [Example 144, Ethyl(3-benzyl-8-ethoxycarbonylaminocarbothioyl-2-oxo-1,4,8-triazaspiro[4,5]dec-1-yl)acetate] |  | 
 | C=CCN1C(=O)C(C(C)C)NC12CCN(C(=S)Nc1c(F)c(F)c(F)c(F)c1F)CC2 (centres unmarked) [Example 149, 1-Allyl-3-isopropyl-2-oxo-1,4,8-triazaspiro[4,5]decan-8-thiocarboxylic acid pentafluorobenzolamide-amide] |  | 55%
32% | CSCCC1NC2(CCN(C(=S)NC(C)C)CC2)N(Cc2ccc(F)cc2)C1=O (centres unmarked) [Example 176, 1-(4-Fluorobenzyl)-3-(2-methylsulfanylethyl)-2-oxo-1,4,8-triazaspiro[4,5]decan-8-thiocarboxylic acid isopropylamide] |  | 
 | CSCCC1NC2(CCN(C(=O)Nc3cccc(F)c3)CC2)N(Cc2ccccc2C#N)C1=O (centres unmarked) [Example 226, 1-(2-Cyanobenzyl)-3-(2-methylsulfanylethyl)-2-oxo-1,4,8-triazaspiro[4,5]decan-8-carboxylic acid (3-fluorobenzol)amide] |  | 55%

SMILES | inhibition at 1 µM [2] | BTX Inhibition [1] | Uptake_5-HT, rat, 1 μM, % inhibition [2]
COC(=O)c1ccccc1S(=O)(=O)N1CCC2(CC1)NC(CCSC)C(=O)N2Cc1ccc(F)cc1 (centres unmarked) [Example 23, Methyl 2-[1-(4-fluorobenzyl)-3-(2-methylsulfanylethyl)-2-oxo-1,4,8-triazaspiro[4,5]decan-8-sulfonyl]-benzoate] | 69% | 40 | 
CC1(C)C2CCC1(CS(=O)(=O)N1CCC3(CC1)NCC(=O)N3Cc1ccccc1F)C(=O)C2 (centres unmarked) [Example 56, 8-(7,7-Dimethyl-2-oxobicyclo[2.2.1]hept-1-ylmethansulfonyl)-1-(2-fluorobenzyl)-1,4,8-triazaspiro[4,5]decan-2-one] | 60% | 32 | 
CCOC(=O)CN1C(=O)C(Cc2ccccc2)NC12CCN(S(=O)(=O)c1ccc(Cl)s1)CC2 (centres unmarked) [Example 61, Ethyl[3-benzyl-8-(5-chlorothiophen-2-sulfonyl)-2-oxo-1,4,8-triazaspiro[4,5]dec-1-yl]-acetate] | 61% | 50 | 
